Experiments:
[1] = target: Protein-tyrosine kinase 2-beta (Homo sapiens, UniProt Q14289); test: (§1) Biochemical Assay: To measure inhibitory activity of FAK/PYK2 inhibitors, compounds were first prepare as a 1 mM stock in 100% DMSO and 3-fold serial dilution was performed in a 96-well plate (Corning, 3897) to generate 12 different concentration of 100× stock. A 5 μl of 100× stock of each concentration was added to wells containing 95 μl of 1× reaction buffer (40 mM Tris, pH7.5, […], 1 mM DTT and 1 mM CHAPS) to generate 5× stock. Then 2 μl of 5× stock of each concentration was added to a 384 wells-OptiPlate (PerkinElmer, 6007299). For FAK, 4 μl of 2.5 nM FAK, 1 μl of 8 μg/μl BSA and 1.5 μl of 666 nM ULight-poly Glu, Ala, Tyr (1:1:1) peptide substrate, prepared in above reaction buffer, were added to each well. The reaction was initiated by adding 1.5 μl of 33.3 μM ATP. The reaction was allowed to proceed for 120 min before being quenched with 5 μl of 40 mM EDTA stop buffer prepared in 1×LANCE detection buffer (PerkinElmer, CR97-100). For PYK2, 5 μl of 2 nM PYK2 and 1.5 μl of 666 nM ULight-poly Glu, Ala, Tyr (1:1:1) peptide substrate, prepared in above reaction buffer, were added to each well. The reaction was initiated by adding 1.5 μl of 46.6 μM ATP. The reaction was allowed to proceed for 40 min before being quenched with 5 μl of 40 mM EDTA stop buffer prepared in 1×LANCE detection buffer (PerkinElmer, CR97-100). Upon quenching of the reaction, 5 μl of 8 nM anti-phosphotyrosine antibody was added to each well and incubated for 60 minutes.
Focal adhesion kinase 1 = Focal adhesion kinase 1 (Homo sapiens, UniProt Q05397); test: as §1
Focal adhesion kinase 1, sequence (Q05397 whole entry): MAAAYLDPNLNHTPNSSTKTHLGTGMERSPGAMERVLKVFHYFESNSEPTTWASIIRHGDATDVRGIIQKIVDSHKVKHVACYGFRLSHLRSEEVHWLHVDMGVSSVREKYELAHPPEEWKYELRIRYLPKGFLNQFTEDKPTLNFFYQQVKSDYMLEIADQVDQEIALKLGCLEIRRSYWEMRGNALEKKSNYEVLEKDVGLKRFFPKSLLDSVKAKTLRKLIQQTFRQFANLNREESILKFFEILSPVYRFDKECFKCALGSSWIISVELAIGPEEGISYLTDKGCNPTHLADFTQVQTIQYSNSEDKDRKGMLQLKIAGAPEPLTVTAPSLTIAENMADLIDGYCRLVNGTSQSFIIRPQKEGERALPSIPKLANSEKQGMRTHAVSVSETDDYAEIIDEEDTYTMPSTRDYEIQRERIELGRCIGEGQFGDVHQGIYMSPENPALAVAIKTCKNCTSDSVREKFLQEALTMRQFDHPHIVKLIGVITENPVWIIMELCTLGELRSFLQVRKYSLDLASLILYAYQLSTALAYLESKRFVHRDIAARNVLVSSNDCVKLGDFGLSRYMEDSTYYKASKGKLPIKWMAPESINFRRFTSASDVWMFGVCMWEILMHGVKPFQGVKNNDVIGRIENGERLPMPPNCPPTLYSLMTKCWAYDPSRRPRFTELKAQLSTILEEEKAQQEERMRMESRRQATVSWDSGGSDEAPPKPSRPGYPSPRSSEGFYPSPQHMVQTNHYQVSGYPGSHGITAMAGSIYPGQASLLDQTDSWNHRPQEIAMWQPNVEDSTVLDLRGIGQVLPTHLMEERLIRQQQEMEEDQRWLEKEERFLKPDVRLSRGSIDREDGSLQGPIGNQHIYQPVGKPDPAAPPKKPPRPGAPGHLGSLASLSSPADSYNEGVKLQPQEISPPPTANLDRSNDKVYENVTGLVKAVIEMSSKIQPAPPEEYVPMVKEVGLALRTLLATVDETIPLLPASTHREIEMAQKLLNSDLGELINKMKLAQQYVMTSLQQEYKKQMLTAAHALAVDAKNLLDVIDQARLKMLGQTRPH

Protein-tyrosine kinase 2-beta, sequence (Q14289 whole entry): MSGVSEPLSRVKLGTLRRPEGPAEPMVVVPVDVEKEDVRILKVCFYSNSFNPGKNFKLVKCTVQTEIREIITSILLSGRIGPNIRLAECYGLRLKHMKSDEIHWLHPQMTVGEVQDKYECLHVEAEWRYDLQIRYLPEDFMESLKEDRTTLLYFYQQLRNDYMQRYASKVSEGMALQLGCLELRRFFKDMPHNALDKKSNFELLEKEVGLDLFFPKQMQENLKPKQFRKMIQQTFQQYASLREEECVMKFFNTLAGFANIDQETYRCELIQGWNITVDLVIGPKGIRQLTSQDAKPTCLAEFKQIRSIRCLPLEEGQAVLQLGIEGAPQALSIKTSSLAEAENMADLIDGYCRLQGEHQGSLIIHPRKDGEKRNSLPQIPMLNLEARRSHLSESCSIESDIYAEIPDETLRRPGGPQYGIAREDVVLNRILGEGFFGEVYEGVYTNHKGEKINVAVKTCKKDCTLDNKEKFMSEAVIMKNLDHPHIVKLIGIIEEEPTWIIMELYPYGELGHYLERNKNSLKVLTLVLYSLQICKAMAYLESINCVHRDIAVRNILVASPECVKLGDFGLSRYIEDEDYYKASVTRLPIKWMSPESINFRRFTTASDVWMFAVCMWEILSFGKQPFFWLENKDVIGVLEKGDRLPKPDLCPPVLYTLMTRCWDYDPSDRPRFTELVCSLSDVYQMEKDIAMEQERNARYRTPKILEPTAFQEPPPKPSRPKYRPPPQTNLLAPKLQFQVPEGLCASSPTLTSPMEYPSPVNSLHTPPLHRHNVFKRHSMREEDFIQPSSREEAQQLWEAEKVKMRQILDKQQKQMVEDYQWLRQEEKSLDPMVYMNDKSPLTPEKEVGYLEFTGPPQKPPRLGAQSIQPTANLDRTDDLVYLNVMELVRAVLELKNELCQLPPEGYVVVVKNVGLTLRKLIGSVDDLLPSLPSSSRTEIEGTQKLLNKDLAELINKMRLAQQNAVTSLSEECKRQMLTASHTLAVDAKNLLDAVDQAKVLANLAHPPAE

CC(C)NS(=O)(=O)c1ccccc1Nc1nc(Nc2ccc(C(C)N3CCCCC3)cc2)nc2c1CCN2 (stereo unspecified)
IC50 [1]: < 20 nM
IC50 (Focal adhesion kinase 1): < 20 nM

COc1cc(N2CCOCC2)ccc1Nc1nc2c(c(Nc3ccccc3CCO)n1)CCN2
IC50 [1]: < 1000 nM
IC50 (Focal adhesion kinase 1): < 1000 nM

COc1cc(N2CCCCC2=O)ccc1Nc1nc2c(c(Nc3ccccc3S(=O)(=O)NC(C)C)n1)CCN2
IC50 [1]: < 20 nM
IC50 (Focal adhesion kinase 1): < 20 nM

COc1cc(N2C(=O)CCc3ccccc32)ccc1Nc1nc2c(c(Nc3ccccc3S(=O)(=O)NC(C)C)n1)CCN2
IC50 [1]: < 500 nM
IC50 (Focal adhesion kinase 1): < 500 nM

COc1cc(N2CCOCC2)ccc1Nc1nc2c(c(Nc3ccc(F)c(F)c3)n1)CCN2
IC50 [1]: < 1000 nM
IC50 (Focal adhesion kinase 1): > 1000 nM

CCOc1cc(N2CCOCC2)ccc1Nc1nc2c(c(Nc3ccccc3S(=O)(=O)NC(C)C)n1)CCN2
IC50 [1]: < 100 nM
IC50 (Focal adhesion kinase 1): < 50 nM

COc1cc(N2CCC(N3CCOCC3)CC2)ccc1Nc1nc2c(c(Nc3ccccc3S(=O)(=O)NC(C)C)n1)CCN2
IC50 [1]: < 20 nM
IC50 (Focal adhesion kinase 1): < 20 nM

CCC(C)NS(=O)(=O)c1ccccc1Nc1nc(Nc2ccc(N3CCOCC3)cc2OC)nc2c1C1(CC1)CN2 (stereo unspecified)
IC50 [1]: < 20 nM
IC50 (Focal adhesion kinase 1): < 20 nM

— ChEMBL document CHEMBL3886913, “2,4-diamino-6,7-dihydro-5H-pyrrolo[2,3]pyrimidine derivatives as FAK/Pyk2 inhibitors” (2016)
